Legend:
[1] = system: CD34+ bone marrow progenitor cells; details: for increase in F-cells over untreated cultures, combination with HU: in combination with 5 μM HU, Phase II only (FIG. 3B)
γ-globin = γ-globin mRNA expression by quantitative PCR in K562 cells; format: cell-based, human; details: 3 days, HPI-6 plus 100 μM HU (FIG. 1A)
Procedure: For studies utilizing the human erythroleukemia K562 cell line (ATCC), cells were grown and cultured in complete medium (RPM1 1640, 10% fetal calf serum (FCS), 100 U/ml penicillin and 0.1 mg/ml streptomycin) in a humidified incubator at 37° C., 95% air, 5% CO2. HPIs were titrated into duplicate cultures at dosage levels spanning more than 100-fold differences in concentration, and incubated from 24 to 96 hours prior to harvesting and quantitation of F-cells and HbF levels by flow cytometry.
Each PCR run included a standard curve and water blank. In addition, a melt curve was run after completion of each PCR run to assess the specificity of the amplification, γ-globin gene expression was normalized relative to the expression level of 18S ribosomal RNA for each sample.

Compound	HbF expression together with HU ([1]; 20 μM HPI-1 with HU (FIGS. 5A, 5B))	HbF expression compared to vehicle control (percent F-cells or MFI for HbF) ([1]; 20 μM, triplicate (FIGS. 5A, 5B))	increase in F-cells over untreated cultures, combination with HU [1] [%]	γ-globin expression with added hydroxyurea (γ-globin)
O=C(O)CNC(=O)c1nc(Cl)c2ccccc2c1O [HPI-1, N-((1-chloro-4-hydroxy-isoquinoline-3-carbonyl)-amino)-acetic acid]	additive to the effects of HU	increased HbF expression	58	
O=C(O)CNC(=O)c1ncc2cc(Br)ccc2c1O [HPI-2, [(7-Bromo-4-hydroxy-isoquinoline-3-carbonyl)-amino]-acetic acid]			29	
O=C(O)CNC(=O)c1ncc2cc(Sc3ccccc3)ccc2c1O [HPI-6, [(4-Hydroxy-7-phenylsulfanyl-isoquinoline-3-carbonyl)-amino]-acetic acid]				augmented
